The IC50 is the concentration that inhibits the measured activity by half.

Where two headings read alike, the source gives them in different places.

For assay [1], the target named is human sodium channel NaV1.2 (Homo sapiens, UniProt Q99250). The assay can be described thus: NaV1.2 inhibition, automated patch-clamp (Q-Patch HTX), slow inactivated state (state C). The settings on record: hNaV1.2 CHO cells, slow inactivated state; for inhibition at 1 µM: 1 μM compound, read-out: NaV1.2 (% inh), 1 μM; for IC50: read-out: NaV1.2 IC50; for inhibition at 10 µM: 10 μM compound, read-out: NaV1.2 (% inh), 10 μM. The class given is cell-based. In short, it runs like this: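 IC50 comes from a least-squares fit of percent inhibition, relative to vehicle, of current in the slow-inactivated state. That state is reached by a 10 s prepulse to −50 mV, then 15 ms at −90 mV, then a 5 ms test pulse to 0 mV. Human NaV1.2 in stable CHO K-1 cells, held at −100 mV, automated patch clamp.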
(In patch-clamp work, channel activity is measured electrically.)

The target in assay [2] is T1, recombinant human serotonin receptor 5-HT2A (Homo sapiens, UniProt P28223).
T1 construct: expressed in transfected cells; method B: loaded with Ca2+ dye
The assay can be described thus: 5-HT2A antagonist Ca2+ assay in CHO-K1 cells (method A aequorin luminescence / method B FLIPR fluorescence). In kind it is cell-based. Particulars: antagonist mode vs EC80 of reference agonist, method A or B. In outline:
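IC50 was obtained by nonlinear regression of percent inhibition of the EC80 agonist Ca2+ response in CHO-K1 cells stably expressing human 5-HT2A. The readout was aequorin luminescence with agonist injected 15 min after compound (A), or Ca2+-dye fluorescence on FLIPR with serotonin as agonist (B).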

Chain of human sodium channel NaV1.2 (Q99250 whole entry): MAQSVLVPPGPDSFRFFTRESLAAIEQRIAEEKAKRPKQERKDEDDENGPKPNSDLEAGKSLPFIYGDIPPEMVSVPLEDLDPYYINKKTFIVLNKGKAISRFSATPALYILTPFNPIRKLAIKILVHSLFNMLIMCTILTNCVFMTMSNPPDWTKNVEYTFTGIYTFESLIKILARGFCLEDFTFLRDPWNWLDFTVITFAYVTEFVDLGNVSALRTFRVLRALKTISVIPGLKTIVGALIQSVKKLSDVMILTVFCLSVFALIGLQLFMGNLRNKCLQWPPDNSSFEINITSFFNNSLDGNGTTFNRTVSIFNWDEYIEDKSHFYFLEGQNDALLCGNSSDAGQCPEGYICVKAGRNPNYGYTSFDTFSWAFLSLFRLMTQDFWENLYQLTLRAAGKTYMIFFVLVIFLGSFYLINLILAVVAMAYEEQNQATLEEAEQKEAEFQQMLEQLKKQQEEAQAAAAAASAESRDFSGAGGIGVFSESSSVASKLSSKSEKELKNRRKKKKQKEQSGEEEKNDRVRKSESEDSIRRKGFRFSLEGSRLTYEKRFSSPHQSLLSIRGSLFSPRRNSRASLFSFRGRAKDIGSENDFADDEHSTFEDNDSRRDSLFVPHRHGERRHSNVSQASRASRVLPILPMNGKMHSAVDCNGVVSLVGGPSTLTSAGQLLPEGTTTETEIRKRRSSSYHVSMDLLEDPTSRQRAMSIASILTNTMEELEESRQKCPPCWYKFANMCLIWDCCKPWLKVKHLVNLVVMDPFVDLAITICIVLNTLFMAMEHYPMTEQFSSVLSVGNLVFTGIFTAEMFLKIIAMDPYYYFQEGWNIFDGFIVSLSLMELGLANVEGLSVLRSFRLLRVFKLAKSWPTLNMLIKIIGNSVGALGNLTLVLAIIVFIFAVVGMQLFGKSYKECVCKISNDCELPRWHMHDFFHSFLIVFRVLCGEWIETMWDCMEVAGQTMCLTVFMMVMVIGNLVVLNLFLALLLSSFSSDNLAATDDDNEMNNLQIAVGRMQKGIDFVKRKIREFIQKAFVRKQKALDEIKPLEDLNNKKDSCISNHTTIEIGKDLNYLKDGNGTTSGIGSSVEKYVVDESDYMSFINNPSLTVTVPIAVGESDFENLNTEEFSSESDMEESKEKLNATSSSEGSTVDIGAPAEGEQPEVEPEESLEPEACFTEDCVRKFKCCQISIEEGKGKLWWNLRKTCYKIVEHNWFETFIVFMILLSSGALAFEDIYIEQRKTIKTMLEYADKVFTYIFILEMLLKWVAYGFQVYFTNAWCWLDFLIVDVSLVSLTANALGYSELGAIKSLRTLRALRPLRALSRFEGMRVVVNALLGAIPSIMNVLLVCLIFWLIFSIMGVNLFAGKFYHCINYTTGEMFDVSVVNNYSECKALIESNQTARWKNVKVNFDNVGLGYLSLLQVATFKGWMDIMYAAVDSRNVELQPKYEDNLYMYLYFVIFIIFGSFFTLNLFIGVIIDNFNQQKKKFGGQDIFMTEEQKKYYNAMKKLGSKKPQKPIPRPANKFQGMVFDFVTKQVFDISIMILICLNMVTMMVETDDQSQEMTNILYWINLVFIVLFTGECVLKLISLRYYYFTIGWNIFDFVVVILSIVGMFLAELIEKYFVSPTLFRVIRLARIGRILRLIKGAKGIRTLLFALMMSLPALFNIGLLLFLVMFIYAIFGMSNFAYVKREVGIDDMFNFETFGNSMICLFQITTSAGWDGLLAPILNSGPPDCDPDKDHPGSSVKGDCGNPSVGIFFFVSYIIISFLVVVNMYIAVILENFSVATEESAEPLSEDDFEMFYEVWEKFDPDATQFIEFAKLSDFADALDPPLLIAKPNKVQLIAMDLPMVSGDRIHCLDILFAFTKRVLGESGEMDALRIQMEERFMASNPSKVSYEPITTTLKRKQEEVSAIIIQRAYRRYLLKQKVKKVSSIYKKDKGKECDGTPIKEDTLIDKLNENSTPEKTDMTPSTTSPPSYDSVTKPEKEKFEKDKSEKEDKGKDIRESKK
T1 sequence (P28223 whole entry): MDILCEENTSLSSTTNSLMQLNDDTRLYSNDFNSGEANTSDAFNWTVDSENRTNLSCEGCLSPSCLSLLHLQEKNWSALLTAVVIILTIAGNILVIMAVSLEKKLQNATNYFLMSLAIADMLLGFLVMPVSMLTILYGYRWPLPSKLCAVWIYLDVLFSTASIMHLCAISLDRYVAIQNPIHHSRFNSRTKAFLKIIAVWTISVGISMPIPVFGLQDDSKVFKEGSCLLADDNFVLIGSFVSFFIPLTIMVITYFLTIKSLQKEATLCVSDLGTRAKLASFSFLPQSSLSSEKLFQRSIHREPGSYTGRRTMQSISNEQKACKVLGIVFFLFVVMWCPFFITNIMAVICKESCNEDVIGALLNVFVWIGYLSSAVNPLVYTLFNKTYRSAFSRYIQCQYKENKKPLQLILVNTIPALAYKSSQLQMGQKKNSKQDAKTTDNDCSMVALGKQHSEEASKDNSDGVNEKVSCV

Turning to `Fc1ccc(OC2CCN(CCC3CCCOC3)CC2)cc1` (stereo not shown) [Example 169, 4-(4-fluorophenoxy)-1-(2-(tetrahydro-2H-pyran-3-yl)ethyl)piperidine], the inhibition at 1 µM in assay [1] was 10%. In addition, in assay [2] (read-out: 5HT2A IC50), the IC50 was found to be 0.28 µM.
The corresponding values for `Fc1ccc(OC2CCN(CCC3CCOCC3)CC2)cc1` [Example 170, 4-(4-fluorophenoxy)-1-(2-(tetrahydro-2H-pyran-4-yl)ethyl)piperidine] are 5% and 1.11 µM.
Regarding `Fc1ccc(OC2CCN(CCC3CCc4ccccc43)CC2)cc1` (stereo not shown) [Example 171, 1-(2-(2,3-dihydro-1H-inden-1-yl)ethyl)-4-(4-fluorophenoxy)piperidine], the IC50 in assay [1] amounted to 40 nM; in assay [2] (read-out: 5HT2A IC50), 0.06 µM.
Turning to `Fc1ccc(OC2CCN(CCC3CCc4ncccc43)CC2)cc1` (stereo not shown) [Example 172, 5-(2-(4-(4-fluorophenoxy)piperidin-1-yl)ethyl)-6,7-dihydro-5H-cyclopenta[b]pyridine], in assay [1], the inhibition at 1 µM turned out to be 34%. In assay [2] (read-out: 5HT2A IC50), the IC50 was found to be 0.12 µM.
With `Fc1ccc(OC2CCN(CCC3CCc4cnccc43)CC2)cc1` (stereo not shown) [Example 173, 5-(2-(4-(4-fluorophenoxy)piperidin-1-yl)ethyl)-6,7-dihydro-5H-cyclopenta[c]pyridine], the IC50 was found to be 3170 nM in assay [1] and 0.01 µM in assay [2] (read-out: 5HT2A IC50).
On to `Fc1ccc(OC2CCN(CCC3CCc4ccncc43)CC2)cc1` (stereo not shown) [Example 174, 7-(2-(4-(4-fluorophenoxy)piperidin-1-yl)ethyl)-6,7-dihydro-5H-cyclopenta[c]pyridine], for which, in assay [1], the inhibition at 1 µM stood at 12%. Moreover, the IC50 in assay [2] (read-out: 5HT2A IC50) was found to be 0.01 µM.
`Fc1ccc(OC2CCN(CCC3CCc4cccnc43)CC2)cc1` (stereo not shown) [Example 175, 7-(2-(4-(4-fluorophenoxy)piperidin-1-yl)ethyl)-6,7-dihydro-5H-cyclopenta[b]pyridine]: the IC50 in assay [1] was 440 nM; in assay [2] (read-out: 5HT2A IC50), 0.01 µM.
As to `Fc1ccc(OC2CCN(CCC3COc4ccccc43)CC2)cc1` (stereo not shown) [Example 176, 1-(2-(2,3-dihydrobenzofuran-3-yl)ethyl)-4-(4-fluorophenoxy)piperidine], the inhibition at 1 µM in assay [1] was 41%. In assay [2] (read-out: 5HT2A IC50), the IC50 came out at 0.08 µM.
The like results for `Fc1ccc(OC2CCN(CCC3COc4cccnc43)CC2)cc1` (stereo not shown) [Example 177, 3-(2-(4-(4-fluorophenoxy)piperidin-1-yl)ethyl)-2,3-dihydrofuro[3,2-b] pyridine] were, in that order, 34% and 0.01 µM.
In the case of `Fc1ccc(OC2CCN(CCC3Cc4ccccc4C3)CC2)cc1` [Example 178, 1-(2-(2,3-dihydro-1H-inden-2-yl)ethyl)-4-(4-fluorophenoxy)piperidine], the IC50 in assay [1] worked out at 1900 nM; in assay [2] (read-out: 5HT2A IC50) it was 0.03 µM.
The corresponding values for `c1ccc(OC2CCN(CCC3COCc4ccccc43)CC2)cc1` (stereo not shown) [Example 179, 1-(2-(isochroman-4-yl)ethyl)-4-phenoxypiperidine] are 610 nM and 0.06 µM.
Regarding `CN1Cc2ccccc2C(CCN2CCC(Oc3ccc(F)cc3)CC2)C1` (stereo not shown) [Example 180, 4-(2-(4-(4-fluorophenoxy)piperidin-1-yl)ethyl)-2-methyl-1,2,3,4-tetrahydroisoquinoline], the inhibition at 1 µM in assay [1] was 8%. Further, the half-inhibitory concentration (IC50) in assay [2] (read-out: 5HT2A IC50) came to 0.32 µM.
The like results for `COc1ccccc1O[C@@H]1CCN(CCC2CCOc3ccccc32)[C@@H](C)C1` (stereo partly drawn) [Example 182, (2S,4R)-1-(2-(chroman-4-yl)ethyl)-4-(2-methoxyphenoxy)-2-methylpiperidine] were, in that order, 52% and 0.2 µM.
In the case of `Fc1ccc(OC2CCN(CCC3CCOc4ccccc43)CC2)cc1` (stereo not shown) [Example 183, 1-(2-(chroman-4-yl)ethyl)-4-(4-fluorophenoxy)piperidine], the IC50 in assay [1] was 1590 nM; in assay [2] (read-out: 5HT2A IC50) it was 0.04 µM.
Take `Fc1ccc(OC2CCN(CCC3COCc4ccccc43)CC2)cc1` (stereo not shown) [Example 184, 4-(4-fluorophenoxy)-1-(2-(isochroman-4-yl)ethyl)piperidine]: the inhibition at 1 µM in assay [1] was found to be 35%. In addition, the 50% inhibitory concentration (IC50) in assay [2] (read-out: 5HT2A IC50) was found to be 0.08 µM.
Take `O=C1Cc2ccccc2N1CCN1CCC(Oc2ccc(F)cc2)CC1` [Example 185, 1-(2-(4-(4-fluorophenoxy)piperidin-1-yl)ethyl)indolin-2-one]: the inhibition at 1 µM in assay [1] was found to be 19%. The 50% inhibitory concentration (IC50) in assay [2] (5HT2A IC50, μM) was 0.01 µM.
In the case of `O=C1c2cccnc2CN1CCN1CCC(Oc2ccc(F)cc2)CC1` [Example 186, 6-(2-(4-(4-fluorophenoxy)piperidin-1-yl)ethyl)-6,7-dihydro-5H-pyrrolo[3,4-b]pyridin-5-one], the inhibition at 1 µM in assay [1] is -3%. For the same compound, the IC50 in assay [2] (read-out: 5HT2A IC50) worked out at 0.01 µM.
With `O=C1c2ccccc2CN1CCN1CCC(Oc2ccc(F)cc2)CC1` [Example 187, 2-(2-(4-(4-fluorophenoxy)piperidin-1-yl)ethyl)isoindolin-1-one], the inhibition at 1 µM in assay [1] turned out to be 14%. The IC50 in assay [2] (read-out: 5HT2A IC50) amounted to 0.07 µM.
The corresponding values for `O=C1c2ccc(F)cc2CN1CCN1CCC(Oc2ccc(F)cc2)CC1` [Example 188, 5-fluoro-2-(2-(4-(4-fluorophenoxy)piperidin-1-yl)ethyl)isoindolin-1-one] are 32% and 0.05 µM.
As for `O=C1c2cc(Cl)ccc2CN1CCN1CCC(Oc2ccc(F)cc2)CC1` [Example 189, 6-chloro-2-(2-(4-(4-fluorophenoxy)piperidin-1-yl)ethyl)isoindolin-1-one], the inhibition at 1 µM in assay [1] is 0%. The concentration for half-maximal inhibition (IC50) in assay [2] (read-out: 5HT2A IC50) was 0.18 µM.
The like results for `O=C1CCc2ccccc2N1CCN1CCC(Oc2ccc(F)cc2)CC1` [Example 190, 1-(2-(4-(4-fluorophenoxy)piperidin-1-yl)ethyl)-3,4-dihydroquinolin-2(1H)-one] were, in that order, 25% and 0.01 µM.
Turning to `O=C1c2ccccc2CCN1CCN1CCC(Oc2ccccc2)CC1` [Example 191, 2-(2-(4-phenoxypiperidin-1-yl)ethyl)-3,4-dihydroisoquinolin-1(2H)-one], in assay [1], the inhibition at 1 µM was found to be 18% and the inhibition at 10 µM turned out to be 52%. Moreover, the half-inhibitory concentration (IC50) in assay [2] (read-out: 5HT2A IC50) came out at 0.05 µM.
In the case of `O=C1c2ccccc2CCN1CCN1CCC(Oc2cccnc2)CC1` [Example 192, 2-(2-(4-(pyridin-3-yloxy)piperidin-1-yl)ethyl)-3,4-dihydroisoquinolin-1(2H)-one], the inhibition at 10 µM in assay [1] stood at 15%. Also, the IC50 in assay [2] (read-out: 5HT2A IC50) came out at 2.84 µM.
The corresponding values for `O=C1c2ccccc2CCN1CCN1CCC(Oc2cccc(F)c2)CC1` [Example 193, 2-(2-(4-(3-fluorophenoxy)piperidin-1-yl)ethyl)-3,4-dihydroisoquinolin-1(2H)-one] are 66% and 0.33 µM.
Regarding `O=C1c2ccccc2CCN1CCN1CCC(Oc2cccc(Cl)c2)CC1` [Example 194, 2-(2-(4-(3-chlorophenoxy)piperidin-1-yl)ethyl)-3,4-dihydroisoquinolin-1(2H)-one], the IC50 in assay [1] was 230 nM; in assay [2] (read-out: 5HT2A IC50), 0.11 µM.
Turning to `COc1cccc(OC2CCN(CCN3CCc4ccccc4C3=O)CC2)c1` [Example 195, 2-(2-(4-(3-methoxyphenoxy)piperidin-1-yl)ethyl)-3,4-dihydroisoquinolin-1(2H)-one], the 50% inhibitory concentration (IC50) in assay [1] was determined as 1500 nM; in assay [2] (read-out: 5HT2A IC50), 0.26 µM.
On to `COCc1cccc(OC2CCN(CCN3CCc4ccccc4C3=O)CC2)c1` [Example 196, 2-(2-(4-(3-(methoxymethyl)phenoxy)piperidin-1-yl)ethyl)-3,4-dihydroisoquinolin-1(2H)-one], for which the inhibition at 10 µM in assay [1] was found to be 67%. Further, the IC50 in assay [2] (read-out: 5HT2A IC50) was determined as 0.36 µM.
The like results for `N#Cc1cccc(OC2CCN(CCN3CCc4ccccc4C3=O)CC2)c1` [Example 197, 3-((1-(2-(1-oxo-3,4-dihydroisoquinolin-2(1H)-yl)ethyl)piperidin-4-yl)oxy)benzonitrile] were, in that order, 47% and 1.25 µM.
As for `O=C1c2ccccc2CCN1CCN1CCC(Oc2ccc(F)cc2)CC1` [Example 200, 2-(2-(4-(4-fluorophenoxy)piperidin-1-yl)ethyl)-3,4-dihydroisoquinolin-1(2H)-one], the inhibition at 10 µM in assay [1] is 73%. The 50% inhibitory concentration (IC50) in assay [2] (read-out: 5HT2A IC50) worked out at 0.01 µM.
The corresponding values for `CN(C)c1ccc(OC2CCN(CCN3CCc4ccccc4C3=O)CC2)cc1` [Example 201, 2-(2-(4-(4-(dimethylamino)phenoxy)piperidin-1-yl)ethyl)-3,4-dihydroisoquinolin-1(2H)-one] are 39% and 2.17 µM.
The corresponding values for `COc1ccc(OC2CCN(CCN3CCc4ccccc4C3=O)CC2)cc1` [Example 202, 2-(2-(4-(4-methoxyphenoxy)piperidin-1-yl)ethyl)-3,4-dihydroisoquinolin-1(2H)-one] are 62% and 0.174 µM.
The corresponding values for `O=C1c2ccncc2CCN1CCN1CCC(Oc2ccc(F)cc2)CC1` [Example 203, 2-(2-(4-(4-fluorophenoxy)piperidin-1-yl)ethyl)-3,4-dihydro-2,6-naphthyridin-1(2H)-one] are 14% and 0.07 µM.
As to `COc1cccc(OC2CCN(CCN3CCCc4ccccc4C3=O)CC2)c1` [Example 205, 2-(2-(4-(3-methoxyphenoxy)piperidin-1-yl)ethyl)-2,3,4,5-tetrahydro-1H-benzo[c]azepin-1-one], the inhibition at 10 µM in assay [1] turned out to be 76%. Besides, the IC50 in assay [2] (read-out: 5HT2A IC50) is 0.45 µM.

Source of the values: patent US11186564B2, “Dual NAV1.2/5HT2a inhibitors for treating CNS disorders” (Sunovion Pharmaceuticals Inc., priority 2016, dated 2021).
